Measurements reported in the NIST ThermoML archive (doi:10.1016/j.fluid.2016.08.002).
Numbers after ± are expanded uncertainties.

Experiment: xn = mol fraction of the nth substance listed
Conditions: Gas, Vibrating tube method

S [hydrogen sulfide] + C
Conditions | mass density [kg/m3]
293.23 K, 18686 kPa, x2 = 0.8685 | 200.27 ± 2
293.23 K, 19770 kPa, x2 = 0.8685 | 210.3 ± 1.6
293.23 K, 22173 kPa, x2 = 0.8685 | 230.34 ± 0.92
293.23 K, 22860 kPa, x2 = 0.8685 | 235.56 ± 0.88
293.27 K, 193 kPa, x2 = 0.8197 | 1.54 ± 0.31
293.27 K, 227 kPa, x2 = 0.714 | 1.99 ± 0.38
293.27 K, 498 kPa, x2 = 0.8197 | 4.03 ± 0.43
293.27 K, 560 kPa, x2 = 0.714 | 4.92 ± 0.42
293.27 K, 7261 kPa, x2 = 0.714 | 85.92 ± 1
293.27 K, 7749 kPa, x2 = 0.714 | 94.83 ± 1.1
293.28 K, 1101 kPa, x2 = 0.714 | 9.72 ± 0.5
293.28 K, 1547 kPa, x2 = 0.714 | 14.1 ± 0.6
293.28 K, 2065 kPa, x2 = 0.714 | 19.16 ± 0.62
293.28 K, 8092 kPa, x2 = 0.714 | 103.64 ± 1.1
293.29 K, 2976 kPa, x2 = 0.714 | 28.53 ± 0.74
293.29 K, 3489 kPa, x2 = 0.714 | 33.95 ± 0.81
293.29 K, 8523 kPa, x2 = 0.714 | 108.8 ± 1.1
293.29 K, 10516 kPa, x2 = 0.714 | 145.41 ± 1.4
293.29 K, 11236 kPa, x2 = 0.714 | 161.66 ± 1.4
293.29 K, 13780 kPa, x2 = 0.714 | 213.21 ± 1.9
293.29 K, 19219 kPa, x2 = 0.8685 | 205.31 ± 1.8
293.29 K, 23988 kPa, x2 = 0.714 | 321.16 ± 1.4
293.29 K, 25012 kPa, x2 = 0.714 | 327.5 ± 1.4
293.3 K, 2511 kPa, x2 = 0.714 | 23.63 ± 0.69
293.3 K, 9149 kPa, x2 = 0.714 | 119.96 ± 1.2
293.3 K, 9741 kPa, x2 = 0.714 | 129.36 ± 1.3
293.3 K, 11789 kPa, x2 = 0.714 | 174.33 ± 1.6
293.3 K, 13528 kPa, x2 = 0.714 | 208.17 ± 1.8
293.3 K, 14426 kPa, x2 = 0.714 | 223.09 ± 2
293.3 K, 15049 kPa, x2 = 0.714 | 233.3 ± 2
293.3 K, 15503 kPa, x2 = 0.714 | 239.94 ± 2.1
293.3 K, 22979 kPa, x2 = 0.714 | 314.55 ± 1.5
293.3 K, 23460 kPa, x2 = 0.714 | 317.83 ± 1.5
293.3 K, 24512 kPa, x2 = 0.714 | 324.48 ± 1.4
293.3 K, 25515 kPa, x2 = 0.714 | 330.43 ± 1.4
293.3 K, 25988 kPa, x2 = 0.714 | 333.07 ± 1.4
293.31 K, 6513 kPa, x2 = 0.8197 | 63.51 ± 0.94
293.31 K, 6885 kPa, x2 = 0.714 | 80.49 ± 1
293.31 K, 12964 kPa, x2 = 0.714 | 198.31 ± 1.8
293.31 K, 14523 kPa, x2 = 0.714 | 224.65 ± 2
293.31 K, 16108 kPa, x2 = 0.714 | 249.28 ± 2.2
293.31 K, 21026 kPa, x2 = 0.714 | 300.53 ± 1.6
293.31 K, 22118 kPa, x2 = 0.714 | 308.67 ± 1.5
293.31 K, 22512 kPa, x2 = 0.714 | 311.24 ± 1.5
293.31 K, 23712 kPa, x2 = 0.714 | 319.93 ± 1.5
293.31 K, 26506 kPa, x2 = 0.714 | 335.86 ± 1.4
293.32 K, 5019 kPa, x2 = 0.8197 | 46.91 ± 0.89
293.32 K, 5508 kPa, x2 = 0.8197 | 52.59 ± 0.91
293.32 K, 5943 kPa, x2 = 0.714 | 66.82 ± 0.96
293.32 K, 7004 kPa, x2 = 0.8197 | 68.5 ± 0.96
293.32 K, 7520 kPa, x2 = 0.8197 | 74.89 ± 1
293.32 K, 8507 kPa, x2 = 0.8197 | 87.23 ± 1.1
293.32 K, 9526 kPa, x2 = 0.8197 | 100.87 ± 1.1
293.32 K, 10518 kPa, x2 = 0.8197 | 114.24 ± 1.2
293.32 K, 12220 kPa, x2 = 0.714 | 183.56 ± 1.6
293.32 K, 12521 kPa, x2 = 0.714 | 189.88 ± 1.7
293.32 K, 22053 kPa, x2 = 0.714 | 308.34 ± 1.5
293.33 K, 1434 kPa, x2 = 0.8197 | 12.03 ± 0.55
293.33 K, 3440 kPa, x2 = 0.8197 | 30.85 ± 0.77
293.33 K, 6464 kPa, x2 = 0.714 | 75.29 ± 0.97
293.33 K, 8008 kPa, x2 = 0.8197 | 80.89 ± 1
293.33 K, 9072 kPa, x2 = 0.8197 | 94.8 ± 1.1
293.33 K, 10169 kPa, x2 = 0.714 | 136.99 ± 1.3
293.33 K, 10922 kPa, x2 = 0.8197 | 121.63 ± 1.3
293.33 K, 18012 kPa, x2 = 0.714 | 271.26 ± 2.4
293.33 K, 18543 kPa, x2 = 0.714 | 276.99 ± 2.4
293.33 K, 19012 kPa, x2 = 0.714 | 281.75 ± 2.3
293.33 K, 19476 kPa, x2 = 0.714 | 286.23 ± 2.1
293.33 K, 21863 kPa, x2 = 0.714 | 306.8 ± 1.5
293.33 K, 26879 kPa, x2 = 0.714 | 337.31 ± 1.4
293.33 K, 29517 kPa, x2 = 0.714 | 349.82 ± 1.4
293.33 K, 29998 kPa, x2 = 0.714 | 352.02 ± 1.4
293.34 K, 6006 kPa, x2 = 0.8197 | 58.11 ± 0.94
293.34 K, 14027 kPa, x2 = 0.8197 | 162.75 ± 1.7
293.34 K, 14501 kPa, x2 = 0.8197 | 169.12 ± 1.8
293.34 K, 16524 kPa, x2 = 0.714 | 253.44 ± 2.2
293.34 K, 17035 kPa, x2 = 0.714 | 260.09 ± 2.3
293.34 K, 20081 kPa, x2 = 0.714 | 291.58 ± 1.9
293.34 K, 20504 kPa, x2 = 0.714 | 295.67 ± 1.7
293.34 K, 22090 kPa, x2 = 0.8197 | 248.06 ± 1.2
293.35 K, 936 kPa, x2 = 0.8197 | 7.74 ± 0.47
293.35 K, 2422 kPa, x2 = 0.8197 | 20.5 ± 0.67
293.35 K, 4502 kPa, x2 = 0.8197 | 41.72 ± 0.87
293.35 K, 11685 kPa, x2 = 0.8197 | 130.63 ± 1.4
293.35 K, 17740 kPa, x2 = 0.714 | 267.95 ± 2.4
293.35 K, 21512 kPa, x2 = 0.8197 | 243.53 ± 1.2
293.36 K, 1962 kPa, x2 = 0.8197 | 16.56 ± 0.61
293.36 K, 12068 kPa, x2 = 0.8197 | 136.11 ± 1.4
293.36 K, 12506 kPa, x2 = 0.8197 | 142.15 ± 1.5
293.36 K, 13036 kPa, x2 = 0.8197 | 149.41 ± 1.6
293.36 K, 13500 kPa, x2 = 0.8197 | 155.72 ± 1.6
293.37 K, 10013 kPa, x2 = 0.8197 | 107.38 ± 1.2
293.37 K, 15006 kPa, x2 = 0.8197 | 175.59 ± 1.8
293.37 K, 22488 kPa, x2 = 0.8197 | 251.05 ± 1.2
293.37 K, 26028 kPa, x2 = 0.8197 | 274.53 ± 1.1
293.37 K, 27520 kPa, x2 = 0.8197 | 283 ± 1
293.37 K, 29405 kPa, x2 = 0.8197 | 292.65 ± 0.99
293.37 K, 29932 kPa, x2 = 0.8197 | 295.13 ± 0.99
293.38 K, 2915 kPa, x2 = 0.8197 | 26.63 ± 0.73
293.38 K, 27986 kPa, x2 = 0.8197 | 285.56 ± 1
293.38 K, 28437 kPa, x2 = 0.8197 | 287.96 ± 1
293.38 K, 28979 kPa, x2 = 0.8197 | 290.66 ± 1
293.39 K, 5407 kPa, x2 = 0.714 | 58.83 ± 0.93
293.39 K, 22971 kPa, x2 = 0.8197 | 254.58 ± 1.1
293.39 K, 24024 kPa, x2 = 0.8197 | 261.83 ± 1.1
293.39 K, 24659 kPa, x2 = 0.8197 | 266.01 ± 1.1
293.4 K, 17009 kPa, x2 = 0.8197 | 200 ± 2.1
293.4 K, 29019 kPa, x2 = 0.714 | 347.54 ± 1.4
293.41 K, 16017 kPa, x2 = 0.8197 | 188.26 ± 1.9
293.41 K, 17526 kPa, x2 = 0.8197 | 205.67 ± 2.1
293.41 K, 19019 kPa, x2 = 0.8197 | 221.14 ± 2
293.41 K, 19519 kPa, x2 = 0.8197 | 225.91 ± 1.8
293.41 K, 20054 kPa, x2 = 0.8197 | 230.93 ± 1.6
293.41 K, 21059 kPa, x2 = 0.8197 | 239.83 ± 1.2
293.41 K, 23490 kPa, x2 = 0.8197 | 258.21 ± 1.1
293.41 K, 25538 kPa, x2 = 0.8197 | 271.56 ± 1.1
293.41 K, 27022 kPa, x2 = 0.8197 | 280.18 ± 1
293.42 K, 3851 kPa, x2 = 0.714 | 38.01 ± 0.83
293.42 K, 3941 kPa, x2 = 0.8197 | 35.88 ± 0.81
293.42 K, 18033 kPa, x2 = 0.8197 | 211.2 ± 2.2
293.42 K, 18536 kPa, x2 = 0.8197 | 216.41 ± 2.2
293.42 K, 20511 kPa, x2 = 0.8197 | 234.95 ± 1.4
293.42 K, 25034 kPa, x2 = 0.8197 | 268.44 ± 1.1
293.42 K, 26523 kPa, x2 = 0.8197 | 277.36 ± 1
293.42 K, 28586 kPa, x2 = 0.714 | 345.52 ± 1.4
293.43 K, 4386 kPa, x2 = 0.714 | 46.59 ± 0.85
293.43 K, 28085 kPa, x2 = 0.714 | 343.33 ± 1.4
293.44 K, 4823 kPa, x2 = 0.714 | 51.27 ± 0.88
293.45 K, 15532 kPa, x2 = 0.8197 | 182.32 ± 1.9
293.45 K, 16485 kPa, x2 = 0.8197 | 193.92 ± 2
293.53 K, 27520 kPa, x2 = 0.714 | 340.85 ± 1.4
293.64 K, 27145 kPa, x2 = 0.714 | 339.08 ± 1.4
